# In ChEMBL document CHEMBL5316264, “Identification of N- and C-3-Modified Laudanosoline Derivatives as Novel Influenza PAN Endonuclease Inhibitors” (J Med Chem, 2023):
# Calls of active or inactive are those of the source. The rule behind the calls is not given here.
# Tests used:
# [1] = Cmax in BALB/c nude mouse at 2 mg/kg, iv measured after 24 hrs by LC-MS/MS analysis; assay type: ADME, organism-based; set-up: time 24 hrs, dose 2 mg/kg, route iv; settings: in vivo
# [2] = Clearance in BALB/c nude mouse at 2 mg/kg, iv measured after 24 hrs by LC-MS/MS analysis; assay type: ADME, organism-based; settings: in vivo
# [3] = AUC (0 to t) in BALB/c nude mouse at 2 mg/kg, iv measured after 24 hrs by LC-MS/MS analysis; assay type: ADME, organism-based; set-up: time 24 hrs, dose 2 mg/kg, route iv; settings: in vivo
# [4] = Metabolic stability in mouse liver S9 fraction assessed as half life at 10 uM incubated for 5 mins in presence of NADPH and UDPGA by LC-MS/MS analysis; assay type: ADME, subcellular
# [5] = test system: Influenza A virus; assay: Antiviral activity against influenza A virus A/WSN/33 (H1N1) infected in MDCK cells assessed as reduction in PB2 mRNA level at 20 uM measured after 2 to 5 hrs after viral infection by RT-PCR analysis; assay type: functional, organism-based; settings: time 2-5 hrs
# [6] = Half life in BALB/c nude mouse at 10 mg/kg, po measured after 24 hrs by LC-MS/MS analysis; assay type: ADME, organism-based; settings: in vivo
# [7] = test system: Influenza A virus; assay: Antiviral activity against influenza A virus A/WSN/33 (H1N1) infected in MDCK cells assessed as reduction in nucleoprotein expression at 20 uM cells pre-infected with virus for 1 hr followed by compound addition; assay type: functional, organism-based
# [8] = Distribution coefficient, logD of compound at pH 7.4; assay type: physicochemical; settings: octanol/water
# [9] = Metabolic stability in mouse plasma assessed as compound remaining measured after 30 mins by LC-MS/MS analysis; assay type: ADME, cell-free; settings: read-out: Stability
# [10] = Oral bioavailability in BALB/c nude mouse at 10 mg/kg measured after 24 hrs by LC-MS/MS analysis; assay type: ADME, organism-based; settings: in vivo
# [11] = test system: Influenza A virus; assay: Antiviral activity against Influenza A A/WSN/33 (H1N1) infected in BALB/c mouse at 30 mg/kg/day, ip administered twice daily for 5 days starting from 1 hrs post infection and measured daily for 14 days; assay type: functional, organism-based; settings: time 5.0 day
# [12] = Solubility of the compound in FeSSIF; assay type: physicochemical
# [13] = AUC (0 to t) in BALB/c nude mouse at 15 mg/kg, ip measured after 24 hrs by LC-MS/MS analysis; assay type: ADME, organism-based; set-up: time 24 hrs, dose 15 mg/kg, route ip; settings: in vivo
# [14] = test system: Influenza A virus; assay: Antiviral activity against influenza A virus A/WSN/33 (H1N1) infected in MDCK cells assessed as effect on matrix protein 2 expression at 20 uM pretreated with cells for 1 hr followed by viral infection; assay type: functional, organism-based
# [15] = test system: Influenza A virus; assay: Antiviral activity against Influenza A A/WSN/33 (H1N1) infected in BALB/c mouse assessed as survival ratio at 15 mg/kg/day, ip administered twice daily for 5 days starting from 1 hrs post infection and measured daily for 14 days relative to control; assay type: functional; settings: time 14 day
# [16] = Metabolic stability in mouse liver microsomes assessed as intrinsic clearance at 10 uM incubated for 5 mins in presence of NADPH by LC-MS/MS analysis; assay type: ADME, Microsome; settings: read-out: CLH
# [17] = Metabolic stability in mouse plasma assessed as compound remaining measured after 90 mins by LC-MS/MS analysis; assay type: ADME, cell-free; settings: read-out: Stability
# [18] = test system: Influenza A virus; assay: Antiviral activity against influenza A virus Flu (B/Lee/1940) infected in MDCK cells assessed as inhibition of cytopathic effect incubated for 48 hrs by MTT assay; assay type: functional, organism-based
# [19] = test system: Influenza A virus; assay: Antiviral activity against influenza A virus A/WSN/33 (H1N1) infected in MDCK cells assessed as inhibition of cRNA synthesis pre-infected with virus for 1 hr followed by compound addition and measured after 24 hrs post infection by RT-qPCR analysis; assay type: functional, organism-based; settings: dose 2.5-10 µM
# [20] = test system: Influenza A virus; assay: Antiviral activity against influenza A virus H3N2(JX/312) infected in MDCK cells assessed as inhibition of cytopathic effect incubated for 48 hrs by MTT assay; assay type: functional, organism-based
# [21] = Tmax in BALB/c nude mouse at 10 mg/kg, po measured after 24 hrs by LC-MS/MS analysis; assay type: ADME, organism-based; settings: in vivo
# [22] = test system: Influenza A virus; assay: Antiviral activity against influenza A virus A/WSN/33 (H1N1) infected in MDCK cells assessed as effect on nucleoprotein expression at 20 uM pre-infected with virus for 30 mins followed by 1 hr incubation with cells; assay type: functional, organism-based; settings: time 1.5 hrs
# [23] = Metabolic stability in mouse liver microsomes assessed as half life at 10 uM incubated for 5 mins in presence of NADPH by LC-MS/MS analysis; assay type: ADME, Microsome
# [24] = test system: Influenza A virus; assay: Antiviral activity against influenza A virus A/WSN/33 (H1N1) infected in MDCK cells assessed as reduction in PB2 mRNA level at 20 uM measured after 5 to 8 hrs after viral infection by RT-PCR analysis; assay type: functional, organism-based; settings: time 5-8 hrs
# [25] = Metabolic stability in mouse liver S9 fraction assessed as intrinsic clearance at 10 uM incubated for 5 mins in presence of NADPH and UDPGA by LC-MS/MS analysis; assay type: ADME, subcellular; settings: read-out: CLH
# [26] = test system: Influenza A virus; assay: Antiviral activity against influenza A virus A/WSN/33 (H1N1) infected in MDCK cells assessed as increase in inhibition of luciferase activity pre-infected with virus for 1 hr followed by compound addition and measured after 24 hrs post infection; assay type: functional, organism-based; settings: dose <= 6.0 nM
# [27] = test system: Influenza A virus; assay: Antiviral activity against influenza A virus H5N1(A/Duck/Guangdong/212/2004) infected in MDCK cells assessed as inhibition of cytopathic effect incubated for 48 hrs by MTT assay; assay type: functional, organism-based
# [28] = in vitro; settings: dog, MDCK cells
# [29] = Metabolic stability in mouse plasma assessed as compound remaining measured after 120 mins by LC-MS/MS analysis; assay type: ADME, cell-free; settings: read-out: Stability
# [30] = Cmax in BALB/c nude mouse at 10 mg/kg, po measured after 24 hrs by LC-MS/MS analysis; assay type: ADME, organism-based; set-up: dose 10 mg/kg, time 24 hrs, route po; settings: in vivo
# [31] = Bioavailability in BALB/c nude mouse at 15 mg/kg, ip measured after 24 hrs by LC-MS/MS analysis; assay type: ADME, organism-based; settings: in vivo
# [32] = AUC (0 to t) in BALB/c nude mouse at 10 mg/kg, po measured after 24 hrs by LC-MS/MS analysis; assay type: ADME, organism-based; set-up: time 24 hrs, dose 10 mg/kg, route po; settings: in vivo
# [33] = test system: Influenza A virus; assay: Antiviral activity against Influenza A A/WSN/33 (H1N1) infected in BALB/c mouse assessed as protection against body weight loss administered ip twice daily for 5 days starting from 1 hrs post infection and measured daily for 14 days; assay type: functional, organism-based; settings: dose 7.5-30 mg/kg/day, time 5.0 day
# [34] = test system: Influenza A virus; assay: Antiviral activity against influenza A virus A/WSN/33 (H1N1) infected in MDCK cells assessed as reduction in matrix protein 2 expression at 20 uM cells pre-infected with virus for 1 hr followed by compound addition; assay type: functional, organism-based
# [35] = Half life in BALB/c nude mouse at 15 mg/kg, ip measured after 24 hrs by LC-MS/MS analysis; assay type: ADME, organism-based; settings: in vivo
# [36] = Solubility of the compound in FaSSIF; assay type: physicochemical
# [37] = Metabolic stability in mouse plasma assessed as compound remaining measured after 60 mins by LC-MS/MS analysis; assay type: ADME, cell-free; settings: read-out: Stability
# [38] = Cmax in BALB/c nude mouse at 15 mg/kg, ip measured after 24 hrs by LC-MS/MS analysis; assay type: ADME, organism-based; set-up: time 24 hrs, dose 15 mg/kg, route ip; settings: in vivo
# [39] = Half life in BALB/c nude mouse at 2 mg/kg, iv measured after 24 hrs by LC-MS/MS analysis; assay type: ADME, organism-based; settings: in vivo
# [40] = test system: Erythrocyte; assay: Inhibition of hemagglutination in chicken RBC cells infected with Influenza A virus A/WSN/33 (H1N1) assessed as reduction in virus-induced agglutination of erythrocytes at 0.31 to 81 uM pretreated with H5 antigen for 30 mins followed by addition of chicken erythrocytes measured after 1 hr; assay type: functional, cell-based; settings: Gallus gallus, dose 0.31-81 µM, time 1.5 hrs
# [41] = test system: Influenza A virus; assay: Antiviral activity against influenza A virus A/WSN/33 (H1N1) infected in MDCK cells assessed as effect on nucleoprotein viral protein expression at 20 uM pretreated with cells for 1 hr followed by viral infection; assay type: functional, organism-based
# [42] = test system: Influenza A virus; assay: Antiviral activity against influenza A virus A/WSN/33 (H1N1) infected in MDCK cells assessed as effect on matrix protein 2 expression at 20 uM pre-infected with virus for 30 mins followed by 1 hr incubation with cells; assay type: functional, organism-based; settings: time 1.5 hrs
# [43] = Aqueous solubility of compound; assay type: physicochemical
# [44] = test system: Influenza A virus; assay: Antiviral activity against influenza A virus A/WSN/33 (H1N1) infected in MDCK cells assessed as reduction in PB2 mRNA level at 20 uM measured upto 10 hrs after viral infection by RT-PCR analysis; assay type: functional, organism-based
# [45] = Cytotoxicity against MDCK cells incubated for 48 hrs by MTT assay; assay type: toxicity, cell-based, Canis lupus familiaris; settings: dog
# [46] = test system: Influenza A virus; assay: Antiviral activity against influenza A virus A/WSN/33 (H1N1) infected in MDCK cells assessed as reduction of ratio of pPOLI-Fluc to Renilla luciferase activity at 2.5 to 10 uM pre-infected with virus for 1 hr followed by compound addition and measured after 24 hrs post infection; assay type: functional, organism-based; settings: dose 2.5-10 µM
# [47] = Tmax in BALB/c nude mouse at 15 mg/kg, ip measured after 24 hrs by LC-MS/MS analysis; assay type: ADME, organism-based; settings: in vivo
smiles,measurement,setting,value
CCCOC(=O)[C@@H]1Cc2cc(O)c(O)cc2[C@H](Cc2ccc(O)c(O)c2)N1C(=O)c1ccccc1Cl,Cmax,[1],1590 ng/mL
same,clearance,[2],53.8 mL/min/kg
same,AUC(0-t) at 24 h,[3],536 ng·h/mL
same,half-life at 10 µM,[4],103 min
same,Activity,[5],Active
same,half-life,[6],49.2 min
same,Activity,[7],Active
same,logD,[8],3.25
same,remaining at 0.5 h,[9],100%
same,bioavailability,[10],6.13%
same,Activity,[11],Active
same,solubility,[12],75.3 µM
same,AUC(0-t) at 24 h,[13],791 ng·h/mL
same,Activity,[14],inactive
same,Activity,[15],60%
same,microsomal CLint at 10 µM,[16],134 µL/min/mg
same,remaining at 1.5 h,[17],91.5%
same,EC50,[18],430 nM
same,Activity,[19],Dose-Dependent Effect
same,EC50,[20],760 nM
same,Tmax,[21],31.2 min
same,Activity,[22],inactive
same,half-life at 10 µM,[23],9.2 min
same,Activity,[24],Active
same,microsomal CLint at 10 µM,[25],9.57 µL/min/mg
same,Activity,[26],Dose-Dependent Effect
same,EC50,[27],1120 nM
same,selectivity ratio,[28],113
same,remaining at 2 h,[29],89.8%
same,Cmax,[30],92.2 ng/mL
same,bioavailability,[31],29.5%
same,AUC(0-t) at 24 h,[32],164 ng·h/mL
same,Activity,[33],Dose-Dependent Effect
same,Activity,[34],Active
same,half-life,[35],64.2 min
same,solubility,[36],78.2 µM
same,remaining at 1 h,[37],95.6%
same,Cmax,[38],890 ng/mL
same,half-life,[39],19.8 min
same,inhibition,[40],inactive
same,Activity,[41],inactive
same,Activity,[42],inactive
same,solubility,[43],1.62 µM
same,Activity,[44],Active
same,CC50 at 48 h,[45],99500 nM
same,Activity,[46],Active
same,Tmax,[47],27 min
